Holding throughout (assay type): in vivo
For one assay, the system named is Erysiphe cichoracaerum. The assay can be described thus: Cucumber Powdery Mildew greenhouse one-day protectant test. The settings on record: 24 h, cucumber plants, one-day protectant test, 200 ppm application rate, read-out: ERYSCI percent control rating.
For a further assay, the system named is Pyricularia oryzae. Description: whole plant or invertebrate. Particulars: 24 h, read-out: PYRIOR percent control rating.
Assay [1] concerns Puccinia recondita tritici. Description: Leaf Rust of Wheat greenhouse one-day protectant test. The settings on record: 24 h, wheat plants, one-day protectant test, 200 ppm application rate, read-out: PUCCRT percent control rating.
The test system of the next assay is Colletotricum lagenarium. The assay can be described thus: Cucumber Anthracnose greenhouse one-day protectant test. Particulars: Cucumis sativus, 24 h, cucumber plants, one-day protectant test, 200 ppm application rate; read-out: COLLLA percent control rating.
For a further assay, the system named is Leptosphaeria nodorum. Description: Glume Blotch of Wheat greenhouse one-day protectant test. The settings on record: Parastagonospora nodorum, 24 h; wheat plants, one-day protectant test, 200 ppm application rate; read-out: LEPTNO percent control rating.
The subject of another assay is Phytophthora infestans. The assay can be described thus: whole plant or invertebrate. The settings on record: in Solanum lycopersicum, 24 h, read-out: PHYTIN percent control rating, tomato plants, one-day protectant test, 200 ppm application rate.

As for `O=C1CNC(c2cccc(Oc3nc4ccc(Cl)cc4s3)c2)=NN1CC(F)(F)F` [Compound 27], the pest or weed control at 200 ppm in the assay on Erysiphe cichoracaerum was in the range of 0 to 49%; with Pyricularia oryzae it was 80 to 100%; in assay [1], 80 to 100%; in the assay on Colletotricum lagenarium, 50 to 79%; in the assay with Leptosphaeria nodorum, 80 to 100%; in the assay with Phytophthora infestans, 0 to 49%.

Take `O=C1CNC(c2cccc(Oc3nnnn3-c3ccccc3)c2)=NN1CC(F)(F)F` [Compound 28]: the pest or weed control at 200 ppm fell in the range of 0 to 49% in the assay on Erysiphe cichoracaerum; 50 to 79% with Pyricularia oryzae; 0 to 49% in assay [1]; 0 to 49% in the assay with Colletotricum lagenarium; 50 to 79% in the assay with Leptosphaeria nodorum; 0 to 49% in the assay with Phytophthora infestans.

For the compound `O=C1CNC(c2cccc(-c3ccc(Cl)s3)c2)=NN1CC(F)(F)F` [Compound 29], the pest or weed control at 200 ppm in the assay with Erysiphe cichoracaerum lay in the range of 0 to 49%; in the assay with Pyricularia oryzae it was 50 to 79%; in assay [1], 80 to 100%; in the assay on Colletotricum lagenarium, 0 to 49%; in the assay on Leptosphaeria nodorum it was 80 to 100%; in the assay on Phytophthora infestans it was 0 to 49%.

For the compound `O=C1CNC(c2cccc(-c3ccc(Oc4ccccc4)cc3)c2)=NN1CC(F)(F)F` [Compound 30], the pest or weed control at 200 ppm in the assay with Erysiphe cichoracaerum was in the range of 0 to 49%; in the assay with Pyricularia oryzae it was 0 to 49%; in assay [1], 50 to 79%; with Colletotricum lagenarium it was 0 to 49%; in the assay on Leptosphaeria nodorum, 50 to 79%; in the assay with Phytophthora infestans, 0 to 49%.

In the case of `O=C1CNC(c2cccc(Oc3ncccn3)c2)=NN1CC(F)(F)F` [Compound 31], the pest or weed control at 200 ppm fell in the range of 0 to 49% with Erysiphe cichoracaerum; 0 to 49% with Pyricularia oryzae; 0 to 49% in assay [1]; 0 to 49% with Colletotricum lagenarium; 50 to 79% in the assay with Leptosphaeria nodorum; 0 to 49% in the assay on Phytophthora infestans.

Take `CNc1cc(F)nc(Oc2cccc(C3=NN(CC(F)(F)F)C(=O)CN3)c2)n1` [Compound 32]: the pest or weed control at 200 ppm in the assay with Erysiphe cichoracaerum was in the range of 0 to 49%; in the assay with Pyricularia oryzae, 0 to 49%; in assay [1] it was 50 to 79%; in the assay on Colletotricum lagenarium, 0 to 49%; in the assay on Leptosphaeria nodorum, 80 to 100%; with Phytophthora infestans it was 0 to 49%.

Turning to `O=C1CNC(c2cccc(Oc3ccnc(Cl)c3)c2)=NN1CC(F)(F)F` [Compound 33], the pest or weed control at 200 ppm in the assay with Erysiphe cichoracaerum fell in the range of 0 to 49%; in the assay on Pyricularia oryzae, 0 to 49%; in assay [1], 80 to 100%; with Colletotricum lagenarium, 0 to 49%; in the assay on Leptosphaeria nodorum, 50 to 79%; with Phytophthora infestans, 0 to 49%.

Take `O=C1CNC(c2ccc(-c3cc(Cl)cc(Cl)c3)nc2)=NN1CCF` [Compound 34]: the pest or weed control at 200 ppm was 0 to 49% in the assay on Erysiphe cichoracaerum; 80 to 100% in the assay on Pyricularia oryzae; 80 to 100% in assay [1]; 50 to 79% with Colletotricum lagenarium; 80 to 100% with Leptosphaeria nodorum; 50 to 79% in the assay on Phytophthora infestans.

Consider `O=C1CNC(c2ccc(-c3ccc(C(F)(F)F)cc3)nc2)=NN1CCF` [Compound 35], for which the pest or weed control at 200 ppm in the assay on Erysiphe cichoracaerum fell in the range of 0 to 49%; in the assay on Pyricularia oryzae it was 80 to 100%; in assay [1] it was 80 to 100%; in the assay on Colletotricum lagenarium it was 50 to 79%; in the assay on Leptosphaeria nodorum it was 80 to 100%; with Phytophthora infestans, 50 to 79%.

In the case of `Cc1cc(C)cc(C2=NN(CC(F)(F)F)C(=O)C(SCc3ccccc3)N2)c1` (stereo not drawn) [Compound 36], the pest or weed control at 200 ppm with Erysiphe cichoracaerum was in the range of 0 to 49%; with Pyricularia oryzae, 80 to 100%; in assay [1] it was 80 to 100%; in the assay with Colletotricum lagenarium it was 80 to 100%; in the assay on Leptosphaeria nodorum it was 80 to 100%; with Phytophthora infestans, 0 to 49%.

Consider `Cc1cc(C)cc(C2=NN(CC(F)(F)F)C(=O)C(SC3CCCCC3)N2)c1` (stereo not drawn) [Compound 37], for which the pest or weed control at 200 ppm lay in the range of 0 to 49% with Erysiphe cichoracaerum; 80 to 100% in the assay on Pyricularia oryzae; 80 to 100% in assay [1]; 80 to 100% in the assay on Colletotricum lagenarium; 80 to 100% in the assay with Leptosphaeria nodorum; 0 to 49% in the assay with Phytophthora infestans.

With `Cc1cc(C)cc(C2=NN(CC(F)(F)F)C(=O)C(SCCO)N2)c1` (stereo not drawn) [Compound 38], the pest or weed control at 200 ppm fell in the range of 0 to 49% in the assay on Erysiphe cichoracaerum; 80 to 100% in the assay with Pyricularia oryzae; 80 to 100% in assay [1]; 0 to 49% in the assay on Colletotricum lagenarium; 80 to 100% in the assay on Leptosphaeria nodorum; 0 to 49% in the assay on Phytophthora infestans.

As to `Cc1cc(C)cc(C2=NN(CC(F)(F)F)C(=O)C(SCCCCl)N2)c1` (stereo not drawn) [Compound 39], the pest or weed control at 200 ppm fell in the range of 0 to 49% with Erysiphe cichoracaerum; 80 to 100% in the assay with Pyricularia oryzae; 80 to 100% in assay [1]; 80 to 100% in the assay with Colletotricum lagenarium; 80 to 100% with Leptosphaeria nodorum; 0 to 49% with Phytophthora infestans.

With `Cc1cc(C)cc(C2=NN(CC(F)(F)F)C(=O)C(OCc3ccccc3)N2)c1` (stereo not drawn) [Compound 40], the pest or weed control at 200 ppm with Erysiphe cichoracaerum fell in the range of 0 to 49%; with Pyricularia oryzae, 80 to 100%; in assay [1], 80 to 100%; in the assay with Colletotricum lagenarium it was 80 to 100%; in the assay on Leptosphaeria nodorum, 80 to 100%; in the assay with Phytophthora infestans it was 0 to 49%.

Take `Cc1cc(C)cc(C2=NN(CC(F)(F)F)C(=O)C(OC3CCCCC3)N2)c1` (stereo not drawn) [Compound 41]: the pest or weed control at 200 ppm in the assay on Erysiphe cichoracaerum fell in the range of 0 to 49%; in the assay on Pyricularia oryzae it was 80 to 100%; in assay [1], 80 to 100%; in the assay with Colletotricum lagenarium it was 50 to 79%; with Leptosphaeria nodorum, 80 to 100%; with Phytophthora infestans, 0 to 49%.

Regarding `Cc1cc(C)cc(C2=NN(CC(F)(F)F)C(=O)C(SCC(=O)O)N2)c1` (stereo not drawn) [Compound 42], the pest or weed control at 200 ppm with Erysiphe cichoracaerum lay within 0 to 49%; with Pyricularia oryzae it was 80 to 100%; in assay [1], 80 to 100%; with Colletotricum lagenarium, 80 to 100%; in the assay on Leptosphaeria nodorum, 80 to 100%; in the assay with Phytophthora infestans, 0 to 49%.

As to `Cc1cc(C2=NN(CC(F)(F)F)C(=O)C(SC3CCCCC3)N2)ccc1Br` (stereo not drawn) [Compound 43], the pest or weed control at 200 ppm was 0 to 49% in the assay on Erysiphe cichoracaerum; 80 to 100% with Pyricularia oryzae; 80 to 100% in assay [1]; 80 to 100% in the assay with Colletotricum lagenarium; 80 to 100% in the assay with Leptosphaeria nodorum; 80 to 100% with Phytophthora infestans.

Regarding `O=C1C(SC2CCCCC2)NC(c2cc(Br)cc(Br)c2)=NN1CC(F)(F)F` (stereo not drawn) [Compound 44], the pest or weed control at 200 ppm was 0 to 49% with Erysiphe cichoracaerum; 80 to 100% in the assay with Pyricularia oryzae; 80 to 100% in assay [1]; 80 to 100% in the assay with Colletotricum lagenarium; 80 to 100% with Leptosphaeria nodorum; 80 to 100% in the assay with Phytophthora infestans.

Take `O=C1C(SC2CCCCC2)NC(c2ccc(Oc3ccccc3)c(-c3ccccc3)c2)=NN1CC(F)(F)F` (stereo not drawn) [Compound 45]: the pest or weed control at 200 ppm in the assay with Erysiphe cichoracaerum was in the range of 0 to 49%; with Pyricularia oryzae, 80 to 100%; in assay [1] it was 50 to 79%; in the assay with Colletotricum lagenarium it was 50 to 79%; in the assay on Leptosphaeria nodorum it was 80 to 100%; in the assay on Phytophthora infestans it was 0 to 49%.

As to `O=C1C(SC2CCCCC2)NC(c2cccc(/C=C\c3ccccc3)c2)=NN1CC(F)(F)F` (stereo not drawn) [Compound 47], the pest or weed control at 200 ppm was 80 to 100% in the assay on Erysiphe cichoracaerum; 80 to 100% in the assay on Pyricularia oryzae; 80 to 100% in assay [1]; 80 to 100% with Colletotricum lagenarium; 80 to 100% in the assay with Leptosphaeria nodorum; 0 to 49% with Phytophthora infestans.

In the case of `O=C1C(SC2CCCCC2)NC(c2ccc(Br)s2)=NN1CC(F)(F)F` (stereo not drawn) [Compound 50], the pest or weed control at 200 ppm in the assay with Erysiphe cichoracaerum was in the range of 0 to 49%; in the assay with Pyricularia oryzae it was 80 to 100%; in assay [1], 80 to 100%; in the assay on Colletotricum lagenarium, 50 to 79%; in the assay with Leptosphaeria nodorum, 80 to 100%; in the assay on Phytophthora infestans, 0 to 49%.

`Cc1ccccc1-c1cccc(C2=NN(CC(F)(F)F)C(=O)C(SC3CCCCC3)N2)c1` (stereo not drawn) [Compound 51]: the pest or weed control at 200 ppm in the assay with Erysiphe cichoracaerum is 0 to 49%; in the assay with Pyricularia oryzae, 80 to 100%; in assay [1] it was 80 to 100%; with Colletotricum lagenarium, 50 to 79%; in the assay with Leptosphaeria nodorum, 80 to 100%; in the assay with Phytophthora infestans, 0 to 49%.

Turning to `O=C1C(SC2CCCCC2)NC(c2cccc(-c3ccccc3OC(F)(F)F)c2)=NN1CC(F)(F)F` (stereo not drawn) [Compound 52], the pest or weed control at 200 ppm was 0 to 49% with Erysiphe cichoracaerum; 80 to 100% with Pyricularia oryzae; 80 to 100% in assay [1]; 0 to 49% in the assay on Colletotricum lagenarium; 80 to 100% with Leptosphaeria nodorum; 0 to 49% in the assay on Phytophthora infestans.

Consider `COc1ccccc1-c1cccc(C2=NN(CC(F)(F)F)C(=O)C(SC3CCCCC3)N2)c1` (stereo not drawn) [Compound 53], for which the pest or weed control at 200 ppm with Erysiphe cichoracaerum fell in the range of 0 to 49%; with Pyricularia oryzae, 80 to 100%; in assay [1], 80 to 100%; with Colletotricum lagenarium it was 50 to 79%; in the assay on Leptosphaeria nodorum, 80 to 100%; in the assay with Phytophthora infestans it was 0 to 49%.

The values above are taken from patent US7473669B2, “Substituted 4,5-dihydro-1,2,4-triazin-6-ones, 1,2,4-triazin-6-ones, and their use as fungicides” (priority 2005, dated 2009).
